According to publication PMC4140816, “Differential Sensitivity of Src-Family Kinases to Activation by SH3 Domain Displacement” (PLoS ONE, 2014):
Where “and” joins values, the source holds several entries; their conditions need not be identical. Identical values can stand only once. Like-named read-outs stand apart in the source and are kept apart here.

Tests used:
Lyn SH3 domain = Lyn SH3 domain (Homo sapiens, UniProt P07948); experiment: SPR, VSL12 binding to Lyn SH3; conditions: biotinylated VSL12 on SA chip, 25°C, duplicate runs
Lyn SH3 domain, sequence (P07948 63-123 limits assumed): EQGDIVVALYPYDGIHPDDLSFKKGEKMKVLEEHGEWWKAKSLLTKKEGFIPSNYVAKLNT
Procedure: The biotinylated peptide was immobilized to 80 Response Units (RU) on the surface of a streptavidin (SA) biosensor chip. The recombinant purified Src SH3 domain proteins were flowed past the peptide over the concentration ranges shown. Association was measured for 180 s, followed by a 300 s dissociation phase.
The C-terminus of each construct was modified by the addition of the sequence […] as encoded by the XhoI site and the His6 tag in the vector. For expression of the SH3 and SH2 domains, E. coli strain Rosetta 2(DE3)pLysS (EMD Millipore) was transformed with each plasmid and cultures were grown at 37°C until the OD600 reached 0.8–1.0. Protein expression was induced with 0.4 mM isopropyl -D-thiogalactopyranoside (IPTG) for 4 h at 25°C. The isolated KDs were expressed as previously described by Seeliger, et al. For purification, cell pellets were resuspended in ion-exchange start buffer (20 mM Tris-HCl, pH 8.5, 5 mM -mercaptoethanol, 10% glycerol), sonicated, and clarified by centrifugation. […] Recombinant purified protein concentrations were quantified by Bradford assay using the BioRad Protein Assay Dye Reagent Concentrate and purified BSA as a reference standard (Pierce).
SPR experiments were performed using a Biacore 3000 Instrument (GE Healthcare) on a streptavidin (SA) biosensor chip. […] Association was measured for 180 s, followed by 300 s of dissociation in HBS-EP running buffer. […]

Src-YEEI = Src-YEEI (Homo sapiens, UniProt P12931); assay type: biochemical; conditions: pH 7.4; read-out: Km YIYGSFK
Fyn-YEEI = Fyn-YEEI (Homo sapiens, UniProt P06241); experiment: Km determination, ADP Quest assay, Fyn-YEEI; assay type: biochemical; conditions: pH 7.4, 25°C, 150 ng/well kinase, mean ±S.E.
Fyn-YEEI, sequence (P06241 with tags, fused parts or gaps): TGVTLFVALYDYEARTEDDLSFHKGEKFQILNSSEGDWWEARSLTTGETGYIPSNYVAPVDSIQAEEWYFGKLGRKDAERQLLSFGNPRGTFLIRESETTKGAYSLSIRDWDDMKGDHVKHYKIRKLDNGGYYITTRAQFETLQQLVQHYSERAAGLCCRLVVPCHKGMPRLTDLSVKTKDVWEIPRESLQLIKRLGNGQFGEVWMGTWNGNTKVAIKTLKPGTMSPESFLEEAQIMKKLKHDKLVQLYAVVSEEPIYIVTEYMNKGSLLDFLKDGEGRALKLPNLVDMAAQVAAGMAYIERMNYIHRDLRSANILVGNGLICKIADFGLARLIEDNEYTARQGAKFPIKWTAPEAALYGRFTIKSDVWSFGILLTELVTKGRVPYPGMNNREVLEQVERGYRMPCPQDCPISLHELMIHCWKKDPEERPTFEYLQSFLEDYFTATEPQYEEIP

Hck-YEEI = Hck-YEEI (Homo sapiens, UniProt P08631, Q523E/Q524E/Q525I); experiment: Km determination, ADP Quest assay, Hck-YEEI; assay type: biochemical; conditions: pH 7.4, 25°C, 150 ng/well kinase, mean ±S.E.
Hck-YEEI, sequence (P08631 78-526 Q523E/Q524E/Q525I limits assumed): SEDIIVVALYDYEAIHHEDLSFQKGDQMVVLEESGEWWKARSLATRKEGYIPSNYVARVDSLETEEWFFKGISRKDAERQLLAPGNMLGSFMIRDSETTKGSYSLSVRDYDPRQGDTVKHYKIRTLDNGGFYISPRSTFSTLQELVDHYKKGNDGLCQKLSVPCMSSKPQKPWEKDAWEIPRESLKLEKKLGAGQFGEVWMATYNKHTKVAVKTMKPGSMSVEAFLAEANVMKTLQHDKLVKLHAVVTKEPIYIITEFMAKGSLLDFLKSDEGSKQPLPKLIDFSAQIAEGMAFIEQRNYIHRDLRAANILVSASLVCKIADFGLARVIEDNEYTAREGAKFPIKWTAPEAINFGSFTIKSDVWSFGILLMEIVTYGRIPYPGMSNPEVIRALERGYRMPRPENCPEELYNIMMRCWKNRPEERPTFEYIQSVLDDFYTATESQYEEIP

Lyn-YEEI = Lyn-YEEI (Homo sapiens, UniProt P07948, Q509E/Q510E/Q511I); experiment: Km determination, ADP Quest assay, Lyn-YEEI; assay type: biochemical; conditions: pH 7.4, 25°C, 250 ng/well kinase, mean ±S.E.
Lyn-YEEI, sequence (P07948 63-512 Q509E/Q510E/Q511I limits assumed): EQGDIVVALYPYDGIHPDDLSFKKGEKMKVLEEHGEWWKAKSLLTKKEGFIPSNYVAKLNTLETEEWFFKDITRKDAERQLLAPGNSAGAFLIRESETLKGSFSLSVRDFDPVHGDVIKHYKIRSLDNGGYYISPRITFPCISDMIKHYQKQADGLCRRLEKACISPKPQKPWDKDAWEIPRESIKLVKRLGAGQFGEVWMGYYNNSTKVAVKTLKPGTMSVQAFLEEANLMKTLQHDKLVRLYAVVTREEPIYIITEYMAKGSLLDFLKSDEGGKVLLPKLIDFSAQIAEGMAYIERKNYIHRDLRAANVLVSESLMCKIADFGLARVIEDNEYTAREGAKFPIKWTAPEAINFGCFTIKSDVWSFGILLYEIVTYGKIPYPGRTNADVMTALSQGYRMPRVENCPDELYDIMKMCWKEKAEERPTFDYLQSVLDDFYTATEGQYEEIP

[1] = ATP held constant at 200 (µM), n = 4, read-out: Km YIYGSFK
[2] = peptide substrate at Km, n = 3, read-out: Km ATP

Work on `CC(C)C[C@H](NC(=O)[C@H](CO)NC(=O)[C@@H](N)C(C)C)C(=O)N[C@@H](C)C(=O)N[C@@H](CCCN=C(N)N)C(=O)N[C@@H](CCCN=C(N)N)C(=O)N1CCC[C@H]1C(=O)N[C@@H](CC(C)C)C(=O)N1CCC[C@H]1C(=O)N1CCC[C@H]1C(=O)N[C@@H](CC(C)C)C(=O)N1CCC[C@H]1C(=O)O` [VSL12] yielded a Kd (Lyn SH3 domain; 31.25-250 nM SH3, 1:1 Langmuir fit, χ^2 1.850, read-out: Kinetic KD) of 647 nM and a Kd (Lyn SH3 domain; 31.25-250 nM SH3, steady state model, χ^2 0.225, read-out: Steady-State KD) of 562 nM.
“YIYGSFK [SFK substrate peptide; Anaspec]” was tested, and the Km (Src-YEEI) was 159 µM, the Km (Fyn-YEEI; [1]) was 70 µM and 69.6 µM and the Km (Hck-YEEI; [1]) was 83.8 ± 12.5 µM. For the same compound, the Km (Lyn-YEEI; [1]) was 83.2 ± 4.9 µM.
Work on `Nc1ncnc2c1ncn2[C@@H]1O[C@H](COP(=O)(O)OP(=O)(O)OP(=O)(O)O)[C@@H](O)[C@H]1O` [ATP] yielded a Km (Fyn-YEEI; [2]) of 49.7 ± 8.2 µM, a Km (Hck-YEEI; [2]) of 55.8 ± 18.5 µM and a Km (Lyn-YEEI; [2]) of 31.1 ± 9.7 µM.
